# Measurements taken from paper PMC1885804, “Preferential inhibition of xanthine oxidase by 2-amino-6-hydroxy-8-mercaptopurine and 2-amino-6-purine thiol” (BMC Biochemistry, 2007).
# Where two headings read alike, the source gives them in different places.
# Legend:
# bovine XOD [1] = target: T1, bovine XOD (Bos taurus, UniProt P80457); test: Steady-state kinetics of XOD (Michaelis Menten and Lineweaver Burk plots); assay type: biochemical
# T1 construct: Bovine milk XOD was procured from Calbiochem (La Jolla, CA, USA); purchased Calbiochem (La Jolla, CA, USA); host or cells: bovine milk
# Procedure: The double reciprocal Lineweaver Burk (LB) plots were drawn to find the mechanism of inhibition of XOD by APT and AHMP (Figure 6, 7, 8, 9).
# (§1) Percent residual activity of formation of uric acid and 6TUA was determined by subtracting the percentage inhibition from 100%. […] Km and kcat were determined in the absence of the inhibitors.
# For competitive inhibition,
# -1/Km app = -1/Km (1+ [I]/Ki)
# For non-competitive inhibition,
# 1/Vmax app = (1+ [I]/Ki)/Vmax
# The modified LB equation for the mixed inhibition is
# 1/v = 1/Vmax app + […]/Vmax app [S]0
# where, Km app and Vmax app are defined by equations (4) and (5).
# Km app = Km {1+([I0]/Ki)}/{1+ ([I0]/KI)}
# Vmax app = Vmax/{1+ ([I0]/KI)}
# Km app is the apparent Michaelis constant and Vmax app is the apparent maximum velocity of the reaction of XOD with its substrates. Ki and KI are the inhibition constants of the inhibitors.
# XOD and XDH = tested on: XOD and XDH; design: method as in doi:10.1016/0006-2952(63)90012-1; settings: at doses that produced significant toxic effects; cited from earlier work
# bovine XOD [2] = target: T1, bovine XOD; test: IC50 determination, XOD-catalyzed hydroxylation (uric acid at 293 nm, 6TUA at 350 nm); assay type: biochemical; settings: for IC50: 2.8 U/ml bovine XOD, ± SEM
# Procedure: One enzyme unit is defined as amount of enzyme required to produce 1 μM uric acid per min per ml reaction mixture from 10 μM of xanthine at 30°C, pH 7.4.
# The IC50 values were determined for all the purine and pyrazolopyrimidine-based compounds. […] GRAFIT software procured from Erithacus Software Limited, UK, written by Dr R.J. Leatherbarrow, was employed for calculating the IC50 values.
# XOD [3] = target: T2, XOD (Bos taurus, UniProt P80457); design: Bovine milk XOD was procured from Calbiochem (La Jolla, CA, USA); purchased Calbiochem (La Jolla, CA, USA); host or cells: bovine milk; settings: cited from earlier work
# bovine XOD [4] = target: T1, bovine XOD; test: In vitro bi-substrate (xanthine + 6MP) simulative experiment, percent residual XOD activity; assay type: biochemical; settings: for Inhibition of 6MP hydroxylation, bi-substrate reaction / Inhibition of xanthine hydroxylation, bi-substrate reaction: observed for 20 min
# Procedure: Percent residual activity for generation of uric acid and 6TUA was determined in the presence of various concentrations of AHMP, APT and allopurinol (Table 2). […] Absorption spectra of the time dependent XOD-mediated bi-substrate reaction in the presence of APT and AHMP are depicted in Figure 4 and Figure 5, respectively.
# as §1
# swiss male mice = test: Single dose acute toxicity study, fourteen days observation; assay type: in vivo
# Procedure: In order to evaluate the toxicity of the preferential inhibitors of XOD, the single dose acute toxicity study was performed for both the preferential inhibitors on swiss male mice following a fourteen days observation period. The body weight of the animal ranged from 25–30 gm. […] Gross necropsy of each animal of all groups was conducted and organ weight was recorded after the termination of the study.
# XOD [5] = target: T2, XOD; test: In vitro tri-substrate (hypoxanthine, xanthine, 6MP) simulative study; assay type: biochemical; design: Bovine milk XOD was procured from Calbiochem (La Jolla, CA, USA); purchased Calbiochem (La Jolla, CA, USA); host or cells: bovine milk; settings: xanthine and 6MP together, data not shown
# XOD [6] = target: T2, XOD
# [7] = design: method as in doi:10.1016/0006-2952(63)90012-1, doi:10.1016/0002-9343(66)90118-5, PMID 14070377; settings: combination with 6MP; cited from earlier work
# [8] = 10 μM hypoxanthine, 0.2 M sodium phosphate buffer pH 7.4, read-out: IC50, XOD inhibition, substrate hypoxanthine
# [9] = 10 μM xanthine, pH 7.4, read-out: IC50, XOD inhibition, substrate xanthine (xanthine to uric acid)
# [10] = IC50, XOD inhibition, substrate 6MP (6MP to 6TUA), 10 μM 6MP, pH 7.4, 60 min reaction
# [11] = read-out: % Activity with 6MP as substrate
# [12] = read-out: % Activity with xanthine as substrate
# [13] = read-out: % Activity with xanthine as substrate (converted)
# [14] = substrate 6MP, read-out: Ki (competitive inhibition constant; Ki^1 for APT, Ki^2 for AHMP)
# [15] = substrate xanthine, read-out: Ki (competitive inhibition constant; Ki^1 for APT, Ki^2 for AHMP)
# [16] = single dose 2.5, 5, 10 mg/kg intravenously, mice, fourteen days
# [17] = single dose 2.5, 5, 10 mg/kg intravenously, mice
# T1 sequence (P80457 whole entry): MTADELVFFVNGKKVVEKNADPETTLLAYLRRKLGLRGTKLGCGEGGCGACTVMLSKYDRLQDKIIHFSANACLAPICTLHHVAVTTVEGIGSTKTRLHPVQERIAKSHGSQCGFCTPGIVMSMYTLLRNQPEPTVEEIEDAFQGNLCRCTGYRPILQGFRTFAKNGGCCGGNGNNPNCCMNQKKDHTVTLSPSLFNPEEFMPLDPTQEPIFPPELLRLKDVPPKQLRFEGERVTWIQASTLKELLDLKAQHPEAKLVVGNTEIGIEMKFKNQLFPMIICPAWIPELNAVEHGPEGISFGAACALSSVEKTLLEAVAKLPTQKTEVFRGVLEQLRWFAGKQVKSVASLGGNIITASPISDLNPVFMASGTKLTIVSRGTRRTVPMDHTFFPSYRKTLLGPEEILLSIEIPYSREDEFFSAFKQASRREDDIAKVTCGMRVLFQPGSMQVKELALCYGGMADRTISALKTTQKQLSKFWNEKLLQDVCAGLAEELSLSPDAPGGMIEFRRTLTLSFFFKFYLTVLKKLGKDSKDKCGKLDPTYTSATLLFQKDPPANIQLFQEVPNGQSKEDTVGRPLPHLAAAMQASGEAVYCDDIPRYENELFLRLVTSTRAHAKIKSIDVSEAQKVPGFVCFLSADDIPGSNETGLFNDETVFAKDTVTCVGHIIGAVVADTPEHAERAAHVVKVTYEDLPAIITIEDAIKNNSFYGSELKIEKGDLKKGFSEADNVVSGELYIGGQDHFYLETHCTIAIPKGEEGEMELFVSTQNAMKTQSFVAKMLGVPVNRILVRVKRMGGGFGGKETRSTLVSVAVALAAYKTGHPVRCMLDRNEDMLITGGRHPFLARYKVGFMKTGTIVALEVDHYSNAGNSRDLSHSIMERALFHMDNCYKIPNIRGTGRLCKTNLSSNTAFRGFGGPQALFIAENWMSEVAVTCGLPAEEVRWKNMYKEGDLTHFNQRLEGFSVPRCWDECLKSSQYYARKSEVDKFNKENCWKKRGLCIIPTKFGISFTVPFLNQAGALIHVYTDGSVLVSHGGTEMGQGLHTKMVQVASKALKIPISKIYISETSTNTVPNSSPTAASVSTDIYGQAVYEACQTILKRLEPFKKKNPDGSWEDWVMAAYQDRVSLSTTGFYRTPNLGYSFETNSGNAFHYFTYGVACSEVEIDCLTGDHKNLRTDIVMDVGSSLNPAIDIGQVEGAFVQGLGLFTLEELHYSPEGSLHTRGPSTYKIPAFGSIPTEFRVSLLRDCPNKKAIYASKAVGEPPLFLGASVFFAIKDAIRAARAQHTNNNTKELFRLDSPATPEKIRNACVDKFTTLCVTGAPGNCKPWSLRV
# T2 sequence (P80457 whole entry): as above
structure (smiles),measurement,setting,value
"Sc1ncnc2nc[nH]c12 [6MP, 6-mercaptopurine]",Vmax (maximum reaction velocity),bovine XOD [1],2.85 ± 0.02 µM/min
NNC(N)=O [semicarbazide],Inhibition of XOD and XDH in vivo,XOD and XDH,less than 50%
"Nc1ncnc2[nH]ncc12 [APP, 4-aminopyrazolo 3,4-d pyrimidine]",Preferential inhibition of the 6MP hydroxylation over xanthine,bovine XOD [2],did not exhibit any preferential inhibition
same,IC50,bovine XOD [2]; [8],6.79 ± 0.28 µM
same,IC50,bovine XOD [2]; [9],20.8 ± 0.84 µM
same,IC50,"bovine XOD [2]; read-out: IC50, XOD inhibition, substrate 6MP (6MP to 6TUA), 10 μM 6MP, pH 7.4, 60 min reaction",12.9 ± 0.69 µM
O=c1c(O)c(-c2ccc(O)cc2O)oc2cc(O)cc(O)c12 [Morin],Type of XOD inhibition,XOD [3],mixed type of inhibition
"Nc1nc2nc[nH]c2c(=S)[nH]1 [APT, 2-amino-6-purinethiol]",Difference in the IC50 value in the first and the late phases,bovine XOD [2],no such difference
same,Whether the compound is an XOD substrate,bovine XOD [2],none were found to be XOD substrates
same,IC50,bovine XOD [2]; [8],7.28 ± 0.17 µM
same,IC50,bovine XOD [2]; [9],16.4 ± 0.21 µM
same,IC50,bovine XOD [2]; [10],2.57 ± 0.08 µM
same,"Inhibition of 6MP hydroxylation, bi-substrate reaction",bovine XOD [4]; inhibitor 5 μM,Almost complete inhibition
same,"Inhibition of xanthine hydroxylation, bi-substrate reaction",bovine XOD [4]; inhibitor 5 μM,little inhibition
same,activity at 0.5 µM,bovine XOD [4]; [11],73 ± 2.5%
same,activity at 1 µM,bovine XOD [4]; [11],66%
same,activity at 2.5 µM,bovine XOD [4]; [11],25%
same,activity at 0.5 µM,bovine XOD [4]; [12],96 ± 1%
same,activity at 1 µM,bovine XOD [4]; [13],90%
same,activity at 2.5 µM,bovine XOD [4]; [13],80%
same,Mechanism of inhibition,bovine XOD [1]; substrate 6MP,competitive inhibition mechanism
same,Ki,bovine XOD [1]; [14],1.3 ± 0.09 µM
same,Mechanism of inhibition,bovine XOD [1]; substrate xanthine,Competitive
same,Ki,bovine XOD [1]; [15],6.61 ± 0.28 µM
same,Gross necropsy,"swiss male mice; mouse, in vivo",no changes in vital organs
same,Organ weight as compared with the control groups,"swiss male mice; mouse, in vivo",No difference in organ weight
same,Mortality,swiss male mice; [16],no mortality
same,Discriminatory inhibition in tri-substrate simulative study,XOD [5],discriminatory inhibition of the 6MP to 6TUA conversion and not hypoxanthine to uric acid conversion
COc1cc(-c2cnn3c(=O)nc[n-]c23)ccc1[S+]([O-])c1ccccc1.[Na+] (stereo not drawn) [BOF-4272],Type of XOD inhibition,XOD [3],mixed type of inhibition
"Oc1ncnc2[nH]ncc12 [ALLOPURINOL, allopurinol]",activity at 0.5 µM,bovine XOD [4]; [11],83 ± 1.05%
same,activity at 1 µM,bovine XOD [4]; [11],48%
same,activity at 2.5 µM,bovine XOD [4]; [11],16%
same,activity at 0.5 µM,bovine XOD [4]; [12],95 ± 1.09%
same,activity at 1 µM,bovine XOD [4]; [12],68%
same,activity at 2.5 µM,bovine XOD [4]; [12],30%
same,Gross necropsy,"swiss male mice; mouse, in vivo",no changes in vital organs
same,Organ weight as compared with the control groups,"swiss male mice; mouse, in vivo",No difference in organ weight
same,Mortality,swiss male mice; [16],no mortality
same,Substrate-induced enzymatic electron transfer / ROS generation on interaction with XOD,XOD [6],led to substrate-induced enzymatic electron transfer via DCPIP
same,Potentiation of the antitumor and immunosuppressive properties of 6MP,[7],three to four
"O=c1[nH]c(=O)c2nc[nH]c2[nH]1 [Xanthine, xanthine]",Vmax (maximum reaction velocity),bovine XOD [1],114.54 ± 0.24 µM/min
O=c1c(O)c(-c2ccccc2)oc2cc(O)cc(O)c12 [Galagin],Type of XOD inhibition,XOD [3],mixed type of inhibition
"Nc1nc2[nH]c(S)nc2c(=O)[nH]1 [AHMP, 2-amino-6-hydroxy-8-mercaptopurine]",Difference in the IC50 value in the first and the late phases,bovine XOD [2],no such difference
same,Whether the compound is an XOD substrate,bovine XOD [2],none were found to be XOD substrates
same,IC50,bovine XOD [2]; [8],5.08 ± 0.04 µM
same,IC50,bovine XOD [2]; [9],17.7 ± 0.29 µM
same,IC50,bovine XOD [2]; [10],0.54 ± 0.01 µM
same,"Inhibition of 6MP hydroxylation, bi-substrate reaction",bovine XOD [4]; inhibitor 2 μM,Almost complete inhibition
same,"Inhibition of xanthine hydroxylation, bi-substrate reaction",bovine XOD [4]; inhibitor 2 μM,little inhibition
same,activity at 0.5 µM,bovine XOD [4]; [11],59 ± 4.01%
same,activity at 1 µM,bovine XOD [4]; [11],47%
same,activity at 2.5 µM,bovine XOD [4]; [11],18%
same,activity at 0.5 µM,bovine XOD [4]; [12],90 ± 1.09%
same,activity at 1 µM,bovine XOD [4]; [13],85%
same,activity at 2.5 µM,bovine XOD [4]; [13],64%
same,Mechanism of inhibition,bovine XOD [1]; substrate 6MP,mixed inhibition mechanism
same,Ki,"bovine XOD [1]; substrate 6MP, read-out: KI^2 (non-competitive inhibition constant) (converted)",0.98 µM
same,Ki,bovine XOD [1]; [14],0.96 ± 0.01 µM
same,Mechanism of inhibition,bovine XOD [1]; substrate xanthine,mixed type of inhibition
same,Ki,"bovine XOD [1]; substrate xanthine, read-out: KI^2 (non-competitive inhibition constant) (converted)",6.24 µM
same,Ki,bovine XOD [1]; [15],5.78 ± 0.48 µM
same,Gross necropsy,swiss male mice; after termination of the study,no changes in vital organs
same,Organ weight as compared with the control groups,swiss male mice; after termination of the study,No difference in organ weight
same,Food intake as compared to allopurinol treated groups,swiss male mice; [17],marginally less
same,Weekly food intake as compared to vehicle treated groups,swiss male mice; [17],decreased
same,Changes in the initial and final body weight,swiss male mice; [16],No significant changes
same,General behavioral toxicity,swiss male mice; [16],No differences in general behavioral toxicity
same,Discriminatory inhibition in tri-substrate simulative study,XOD [5],discriminatory inhibition of the 6MP to 6TUA conversion and not hypoxanthine to uric acid conversion
O=C(Nc1ncnc2nc[nH]c12)c1ccccc1 [6-(N-benzoylamino)purine],Preferential inhibition of the 6MP hydroxylation over xanthine,bovine XOD [2],did not exhibit any preferential inhibition
